In patent US5348975A, “7-chromanyl esters of phenols and benzoic acids having retinoid-like activity” (Allergan, Inc., priority 1993, dated 1994):

Legend:
[1] = test system: ornithine decarboxylase (ODC); assay: inhibition of TPA-induced ornithine decarboxylase (ODC) activity (retinoic acid-like activity; essentially method of Verma & Boutwell); type: in vivo
Text: The retionic acid like activity of these compounds was confirmed through the classic measure of retionic acid activity involving the effects of retionic acid on ornithine decarboxylase. The original work on the correlation between retinoic acid and decrease in cell proliferation was done by Verma & Boutwell, Cancer Research, 1977, 37, 2196-2201. That reference discloses that ornithine decarboxylase (ODC) activity increased precedent to polyamine biosynthesis. It has been established elsewhere that increases in polyamine synthesis can be correlated or associated with cellular proliferation. Thus, if ODC activity could be inhibited, cell hyperproliferation could be modulated.
By way of example of retinoic acid-like activity it is noted that in the assay conducted essentially in accordance with the method of Verma & Boutwell, ibid, the following examples of the preferred compounds of the present invention (Compounds 1, 2 and 3) elicited the following percent inhibition of TPA-induced ODC activity at the given calculations: […]

[2] = test system: ornithine decarboxylase (ODC); conditions: literature background, cited from earlier work

With `CCOC(=O)c1ccc(OC(=O)c2ccc3c(c2)OC(C)(C)CC3(C)C)cc1` [Compound 1, Ethyl 4-(2,2,4,4-tetramethyl-7-chromanoyloxy) benzoate] the “% inhibition of TPA-induced ODC activity” value ([1]; Dose 30 nmol) was 100%.
With `CC1(C)CC(C)(C)c2ccc(C(=O)Oc3ccc(C(=O)OCc4ccccc4)cc3)cc2O1` [Compound 2, Benzyl 4-(2,2,4,4,tetramethyl-7-chromanoyloxy)benzoate] the “% inhibition of TPA-induced ODC activity” value ([1]; Dose 300 nmol) was 84%.
In the case of `CC1(C)CC(C)(C)c2ccc(C(=O)Oc3ccc(C(=O)O)cc3)cc2O1` [Compound 3, 4-(2,2,4,4-tetramethyl-7-chromanoyloxy) benzoic acid], the “% inhibition of TPA-induced ODC activity” value ([1]; Dose 30 nmol) is reported as 86%.
In the case of `CC1=C(/C=C/C(C)=C/C=C/C(C)=C/C(=O)O)C(C)(C)CCC1` [Retinoic acid], the “inhibition of TPA induction of ODC activity (in words)” value ([2]; retinoic acid) is given as “inhibits this induction of ODC activity by TPA”.
In the case of `CCCCCCCCCCCCCC(=O)O[C@@H]1[C@@H](C)[C@@]2(O)[C@@H](C=C(CO)C[C@]3(O)C(=O)C(C)=C[C@@H]23)[C@@H]2C(C)(C)[C@]12OC(C)=O` [TPA, 12-0-tetradecanoyl-phorbol-13-acetate], the “induction of ODC activity (in words)” value ([2]; TPA) is given as “induces ODC activity”.
